# Earlier results as cited in patent US20060003361A1, “SMVT transporters expressed in cancer cells” (Xenoport, Inc., priority 2004, published 2006).
# Target: T1, SMVT (Homo sapiens, UniProt Q9Y289)
# T1 sequence (Q9Y289 1-635): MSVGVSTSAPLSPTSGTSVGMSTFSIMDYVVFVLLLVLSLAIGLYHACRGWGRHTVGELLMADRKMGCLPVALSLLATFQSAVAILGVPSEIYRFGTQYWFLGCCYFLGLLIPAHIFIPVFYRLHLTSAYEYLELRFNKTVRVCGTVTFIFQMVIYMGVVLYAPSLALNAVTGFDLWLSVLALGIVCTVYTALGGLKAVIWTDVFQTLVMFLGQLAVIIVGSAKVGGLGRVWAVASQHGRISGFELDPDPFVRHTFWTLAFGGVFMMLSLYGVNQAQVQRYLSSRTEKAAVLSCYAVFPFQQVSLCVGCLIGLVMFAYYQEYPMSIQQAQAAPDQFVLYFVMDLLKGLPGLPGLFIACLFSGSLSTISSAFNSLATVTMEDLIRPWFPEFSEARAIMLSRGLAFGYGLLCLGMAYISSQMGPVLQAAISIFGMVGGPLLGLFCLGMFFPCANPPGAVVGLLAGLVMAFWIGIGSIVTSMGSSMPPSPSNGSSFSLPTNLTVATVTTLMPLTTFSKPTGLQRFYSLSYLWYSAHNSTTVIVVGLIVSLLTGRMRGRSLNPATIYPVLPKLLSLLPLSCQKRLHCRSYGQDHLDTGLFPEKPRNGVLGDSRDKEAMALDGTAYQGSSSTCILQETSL
row,SMILES,Reported Affinity for SMVT
1,O=C(O)CCCc1ccccc1 [4-phenyl-butyric acid],0.04 mM
2,O=C(O)CCCC[C@@H]1SC[C@@H]2NC(=O)N[C@@H]21 [Biotin],0.01 mM
3,CC(C)(CO)[C@@H](O)C(=O)NCCC(=O)O [Pantothenic acid],0.03 mM
